Each block holds one molecule with its values, some of them ahead of it.
How the values were obtained:
[1] = tested on: lung tumors of LSL-K-rasG12D;p53Fl/+ mice; assay: Lung tumor burden by micro-CT in LSL-K-rasG12D;p53Fl/+ mice; format: in vivo, mouse; settings: FIG. 3A-B
Experimental: (§1) LSL-K-ras^G12D;p53^F1/+ were infected with Adeno-Cre virus and allowed to age for 16 weeks post-tumor induction. Baseline CT scans were performed at 16 weeks post-tumor induction (day 0 of study) and mice were grouped such that average starting tumor volume per group were equal. Mice were dosed once a week for three weeks with cisplatin (7 mg/kg) or phosphate-buffered saline, and bi-weekly with HER4ECD-Fc (25 mg/kg) or anti-ragweed IgG2A (25 mg/kg) for the duration of the study. Serial CT scans were performed at days 14, 45, and 66.
Two micro-CT systems (vivaCT 40 and vivaCT 75, Scanco Medical, Switzerland) were utilized for longitudinal lung imaging. Animals were randomized between micro-CT systems and rescanned on the same system used for baseline imaging. […] The imaging data were evaluated in the coronal plane using the image analysis software package Analyze (AnalyzeDirect, Inc., Lenexa, Kans., USA). Once the largest cross-sectional plane of each tumor was identified, estimates of maximal tumor diameter (d1) and the largest perpendicular diameter (d2) were determined. The total tumor burden was calculated as the sum of the cross-product of the directional estimates (d1×d2) of all the tumors. […]

[2] = tested on: Calu3-shHER3 xenograft tumors; assay: Calu3-shHER3 xenograft; format: in vivo, human; settings: Calu3-shHER3, dox 2 gm/L in drinking water
Experimental: To confirm this role in vivo, studies using Calu3-shHER3 and Calu3-shHER4 xenograft models treated with either sucrose or dox were performed. Mice with established Calu3-shHER3 or Calu3-shHer4 xenograft tumors were administered vehicle (sucrose) or dox (2 gm/L) in their drinking water ad libitum (n=14/group).

[3] = tested on: Calu3-shNRG1 xenograft tumors; assay: Calu3-shNRG1 xenograft, NRG1 knockdown +/- chemotherapy; format: in vivo, human; settings: dox induces NRG1 knockdown, chemotherapy paclitaxel + cisplatin
Experimental: Tumor cells (10-20 million) were transplanted into right flank of athymic nude mice. When tumor size reached ˜200 mm^3, the mice were divided into different treatment groups. Mice were then treated with either vehicle or chemotherapy (paclitaxel, i.v.+cisplatin, i.p.) for the initial studies. The chemotherapy dosing regimen was paclitaxel 20 mg/kg i.v. every other day for 5 doses and cisplatin 5 mg/kg i.p. on days 1 and 7 for the Calu3 model and days 1 and 14 for the H441 model. Regressed tumors and time matched vehicle controls were collected at least 1 week after the last dose of chemo. Tumors were dissociated using dispase/collagenase and samples were FACS sorted to collect the GFP positive tumor cells. For the NRG1 knockdown studies, the treatment groups were: sucrose, doxycycline (dox), chemotherapy+sucrose, and chemotherapy+doxycycline. […]
To determine the efficacy of NRG1-targeting in the Calu3 model, Calu3-shNRG1 tumor bearing mice were assigned to four groups; 1) vehicle+sucrose, 2) vehicle+dox, 3) chemotherapy+sucrose, and 4) chemotherapy+dox. […] Tumor volume was measured twice a week for the duration of the study.
The effect of NRG1 on tumor relapse was assessed by comparing the growth of tumors in the chemotherapy+sucrose with those in the chemotherapy+dox group. […] Therefore, the measured volumes were considerably larger than the actual tumor volume in the dox-treated groups. […]

NRG1/HER3 signaling = assay: HER4-ECD on serum starved LKPH1 and LKPH2 cells, p-HER3 Western blot; format: cell-based, mouse
Experimental: To induce shRNA expression, stable cell lines harboring doxcycline-inducible shNRG1 or shLuciferase were grown in 1 ug/ml doxcycline for a total of 6 days. The first day of induction cells were grown in 10% FBS, followed by a titration of FBS over the course of 4 more days. The cells were then completely serum starved during the last 6 hours of growth. Cells were then processed for RNA extraction or western blotting. For HER4ECD studies in mouse lung tumor cell lines, LKPH cells were grown in serum starved conditions for 24 hours prior to addition of HER4ECD at a concentration of 2 mg/ml. LKPH cells were then incubated for another 48 hours prior to processing for Western blotting. Addition of exogenous NRG1 on H441 cells were performed as follows: H441 cells were serum starved for 18 hours prior to addition of 1 uM recombinant human NRG1 beta-1 extracellular domain (R&D systems) or 1 uM anti-ragweed IgG2A as the control. Ten minutes after addition of NRG1 or ragweed, cells were processed for Western blotting.
To test the role of NRG1 signaling in promoting relapse after chemotherapy in the LSL-K-ras^G12D;p53^F1/+ mouse model, a ligand-trap approach to sequester NRG1 and prevent its binding to receptors in vivo was employed. A fusion of the human HER4 extracellular domain (HER4-ECD) fused to murine IgG2A Fc was generated. […]

[4] = tested on: lung tumors of LSL-K-rasG12D;p53Fl/Fl mice; assay: Lung tumor burden by micro-CT in LSL-K-rasG12D;p53Fl/Fl mice; format: in vivo, mouse; settings: FIG. 3C
Experimental: as §1
Two micro-CT systems (vivaCT 40 and vivaCT 75, Scanco Medical, Switzerland) were utilized for longitudinal lung imaging. Animals were randomized between micro-CT systems and rescanned on the same system used for baseline imaging. […] The imaging data were evaluated in the coronal plane using the image analysis software package Analyze (AnalyzeDirect, Inc., Lenexa, Kans., USA). Once the largest cross-sectional plane of each tumor was identified, estimates of maximal tumor diameter (d1) and the largest perpendicular diameter (d2) were determined. The total tumor burden was calculated as the sum of the cross-product of the directional estimates (d1×d2) of all the tumors.
A second study was carried out in LSL-K-ras^G12D;p53^F1/F1 mice as described above. […] Combination activity was assessed using an unpaired t-test against its monotherapy * p<0.05, ** p<0.01.

NRG1β = molecular target: T1, NRG1β (Homo sapiens, UniProt Q02297); assay: Inhibition of 125I-HRG (NRG1β) binding to HER3-ECD-Fc; settings: parental anti-NRG1 antibodies, FIG. 6
T1 sequence (Q02297 177-244 isoform Q02297-6 limits assumed): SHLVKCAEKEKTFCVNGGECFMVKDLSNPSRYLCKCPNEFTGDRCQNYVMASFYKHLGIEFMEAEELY
Experimental: The antibodies were tested for their ability to inhibit NRG1β binding to HER3-Fc. 125I-HRG was generated at Genentech as described previously (Sliwkowski et al JBC 1994). Binding assays were performed in Nunc break-apart strip wells (Thermo-Fisher Scientific, Rochester, N.Y.). Plates were coated at 4° C. overnight with 250 ng/well of HER3-ECD-Fc fusion protein in carbonate buffer (pH 9.6). Plates were rinsed twice with wash buffer (PBS/0.05% Tween 20) and blocked with 100 μL PBS including 1% bovine serum albumin (BSA) for 30 minutes. Increasing concentrations of anti-NRG1 antibodies in RPMI 1640 medium (Invitrogen; Carlsbad, Calif.) with 0.2% BSA were pre-bound to HER3-ECD-Fc. 125I-HRG (specific activity: 266 mCi/mg, 75,000 cpm/well) was added immediately after in a total assay volume of 130 μL. Plates were incubated for 2 hours at room temperature, rinsed twice, and individual wells were counted using a 100 Series Iso Data γ-counter. Samples were assayed in triplicates. Plotting was performed using KaleidaGraph 3.6 software. […]
The affinity matured variants were tested for their ability to block HRGβ binding to HER3-Fc. […] Plates were incubated for 2 hours at room temperature, rinsed twice, and individual wells were counted using a 100 Series Iso Data γ-counter. […]

HRG1a = molecular target: T2, HRG1a (Homo sapiens, UniProt Q02297); assay: Competition assay with 538.24.17 for HRG1a; format: binding; settings: FIG. 12
T2 sequence (Q02297 177-241): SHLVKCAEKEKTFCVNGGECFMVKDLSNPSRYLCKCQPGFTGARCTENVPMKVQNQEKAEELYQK
Experimental: (§2) A competition assay was performed to determine the binding specificity of the 526.09 and 526.02 antibodies.

HRG1β = assay: Competition assay with 538.24.17 for HRG1β; format: binding; settings: FIG. 12
Experimental: as §2

Molecule: N.N.[Cl][Pt][Cl] [cisplatin]
tumor growth (average tumor burden and tumor growth rate) [1]: not significantly different

Molecule: C[C@H]1c2cccc(O)c2C(=O)C2=C(O)[C@]3(O)C(=O)C(C(N)=O)=C(O)[C@@H](N(C)C)[C@@H]3[C@@H](O)[C@@H]21 [dox, doxycycline]
tumor volume doubling time (TDT) [2]: 19 days

Molecule: C[C@H]1c2cccc(O)c2C(O)=C2C(=O)[C@]3(O)C(O)=C(C(N)=O)C(=O)[C@@H](N(C)C)[C@@H]3[C@@H](O)[C@@H]21 [vehicle+dox]
tumor volume doubling time (TDT) [3]: 44.5 days

Molecule: HER4-ECD: fusion of the human HER4 extracellular domain to murine IgG2A Fc, ligand trap to sequester NRG1
p-HER3 levels (NRG1/HER3 signaling): diminished
tumor burden by micro-CT on day 28 [4]: no effect

dose-dependent inhibition of NRGβ binding to HER3-Fc (NRG1β): most potent blockers
competition with 538.24.17 for HRG1a (HRG1a): competes
B1: 526.90: parental anti-NRG1 antibody; VH SEQ ID NO: 52, VL SEQ ID NO: 53 (antibody, V domains shown)
VH: EVQLVESGGGLVQPGGSLRLSCAASGFTFSGNAMSWVRQAPGKGLEWVSWIYPSGGNTYYADSVKGRFTISADTSKNTAYLQMNSLRAEDTAVYYCARSYILSYPSITWAFDYWGQGTLVTVSS
VL: DIQMTQSPSSLSASVGDRVTITCRASQSISSYLAWYQQKPGKAPKLLIYGASSRASGVPSRFSGSGSGTDFTLTISSLQPEDFATYYCQQSYSTPITFGQGTKVEIKR
modifications: Heavy chain variable region; Light chain variable region
competition with 538.24.17 for HRG1β (HRG1β): competes
